± gives the expanded uncertainty stated by the source.

From the NIST ThermoML archive (doi:10.1016/j.jct.2014.06.030) come the findings set out here.

For this series the following is noted: 101.33 kPa, Liquid; for speed of sound: Sing-around technique in a fixed-path interferometer; for mass density: Vibrating tube method.

For orientation: speed of sound means how fast a sound wave travels through the sample. In general, mass density refers to mass per unit of volume. For `Cc1ccccc1Cl` [2-chlorotoluene], the speed of sound is 1298.7 ± 1.4 m/s (298.15 K), 1280.7 ± 1.4 m/s (303.15 K) and 1262.7 ± 1.4 m/s (308.15 K). The mass density was determined as 1077.3 ± 1 kg/m3 (298.15 K), 1072.5 ± 1 kg/m3 (303.15 K) and 1067.6 ± 1 kg/m3 (308.15 K).

Consider `CNC=O` [N-methylformamide], for which the speed of sound by setting is: (298.15 K) 1431.6 ± 1.3 m/s; (303.15 K) 1417.4 ± 1.3 m/s; (308.15 K) 1402.2 ± 1.3 m/s. Besides, the mass density by setting is: (298.15 K) 999 ± 1 kg/m3; (303.15 K) 994.65 ± 1 kg/m3; (308.15 K) 990.3 ± 1 kg/m3.

Regarding `C1CCCCC1` [cyclohexane], the speed of sound (298.15 K) came out at 1253.6 ± 1.2 m/s, the speed of sound (303.15 K) was found to be 1229.1 ± 1.2 m/s and the speed of sound (308.15 K) is on record as 1205.1 ± 1.2 m/s. The mass density is, setting by setting: (298.15 K) 773.94 ± 1 kg/m3; (303.15 K) 769.21 ± 1 kg/m3; (308.15 K) 764.45 ± 1 kg/m3.

Turning to `CN(C)C=O` [dimethylformamide], the speed of sound is, setting by setting: (298.15 K) 1458.5 ± 1.2 m/s; (303.15 K) 1440.2 ± 1.2 m/s; (308.15 K) 1420.8 ± 1.2 m/s. Also, the mass density was 944.6 ± 1 kg/m3 (298.15 K), 939.83 ± 1 kg/m3 (303.15 K) and 935.05 ± 1 kg/m3 (308.15 K).

For the compound `C1CCOCC1` [tetrahydropyran], the speed of sound (298.15 K) is 1269.8 ± 1.2 m/s, the speed of sound (303.15 K) is listed as 1246.8 ± 1.2 m/s and the speed of sound (308.15 K) is 1224.4 ± 1.2 m/s. The mass density is given as 879.13 ± 1 kg/m3 (298.15 K), 873.99 ± 1 kg/m3 (303.15 K) and 868.83 ± 1 kg/m3 (308.15 K).
